# From PubChem BioAssay AID1918946 (Molecular Pharmacology Branch, DTP, NCI, 2023)
# Test system: 885512-296-R-J2-PDC complex spheroid viability
# Experiment: Anticancer human tumor 885512-296-R-J2-PDC patient-derived breast carcinoma cell line growth inhibition
# Details: for IC50: curve of first compound; for viability, T/C: stronger effect = lower value
# In short: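 Drug combinations with the LSD1 inhibitor iadademstat tested on tumor cells co-cultured as spheroids with endothelial cells and mesenchymal stem cells. Concentrations descended in half-log increments from clinical Cmax or 10 microM.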
# [1] = second compound 0.1 µM, first compound 0.00949 µM
# [2] = second compound 0.1 µM, first compound 0.03 µM
# [3] = second compound 0.1 µM, first compound 0.0949 µM
# [4] = second compound 0.1 µM, first compound 0.3 µM
# [5] = second compound 0.316 µM, first compound 0.00949 µM
# [6] = second compound 0.316 µM, first compound 0.03 µM
# [7] = second compound 0.316 µM, first compound 0.0949 µM
# [8] = second compound 0.316 µM, first compound 0.3 µM
# [9] = second compound 1 µM, first compound 0.00949 µM
# [10] = second compound 1 µM, first compound 0.03 µM
# [11] = second compound 1 µM, first compound 0.0949 µM
# [12] = second compound 1 µM, first compound 0.3 µM
# [13] = second compound 3.16 µM, first compound 0.00949 µM
# [14] = second compound 3.16 µM, first compound 0.03 µM
# [15] = second compound 3.16 µM, first compound 0.0949 µM
# [16] = second compound 3.16 µM, first compound 0.3 µM
# [17] = second compound 10 µM, first compound 0.00949 µM
# [18] = second compound 10 µM, first compound 0.03 µM
# [19] = second compound 10 µM, first compound 0.0949 µM
# [20] = second compound 10 µM, first compound 0.3 µM
# 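Further: spheroids exposed to agents for 7 days before viability read.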
compound,measurement,setting,value
Nc1ccccc1NC(=O)c1ccc(CNC(=O)OCc2cccnc2)cc1 + NC1CCC(NC2CC2c2ccccc2)CC1,IC50,second compound 0.1 µM,106 nM
same,IC50,second compound 0.316 µM,108 nM
same,IC50,second compound 1 µM,123 nM
same,IC50,second compound 3.16 µM,124 nM
same,IC50,second compound 10 µM,90.7 nM
same,"viability, T/C",[1],123%
same,"viability, T/C",[2],111%
same,"viability, T/C",[3],50.6%
same,"viability, T/C",[4],25.3%
same,"viability, T/C","second compound 0.1 µM, first compound 0.949 µM",16.7%
same,"viability, T/C","second compound 0.1 µM, first compound 3 µM",7.75%
same,"viability, T/C",[5],115%
same,"viability, T/C",[6],110%
same,"viability, T/C",[7],51.7%
same,"viability, T/C",[8],24.6%
same,"viability, T/C","second compound 0.316 µM, first compound 0.949 µM",15.5%
same,"viability, T/C","second compound 0.316 µM, first compound 3 µM",8.27%
same,"viability, T/C",[9],116%
same,"viability, T/C",[10],106%
same,"viability, T/C",[11],52.9%
same,"viability, T/C",[12],28.6%
same,"viability, T/C","second compound 1 µM, first compound 0.949 µM",11.4%
same,"viability, T/C","second compound 1 µM, first compound 3 µM",6.94%
same,"viability, T/C",[13],123%
same,"viability, T/C",[14],105%
same,"viability, T/C",[15],54.1%
same,"viability, T/C",[16],26.6%
same,"viability, T/C","second compound 3.16 µM, first compound 0.949 µM",12.5%
same,"viability, T/C","second compound 3.16 µM, first compound 3 µM",4.09%
same,"viability, T/C",[17],107%
same,"viability, T/C",[18],89.8%
same,"viability, T/C",[19],46.5%
same,"viability, T/C",[20],20.5%
same,"viability, T/C","second compound 10 µM, first compound 0.949 µM",9.82%
same,"viability, T/C","second compound 10 µM, first compound 3 µM",4.99%
Nc1ccn(C2OC(CO)C(O)C2(F)F)c(=O)n1 (stereo not given) + NC1CCC(NC2CC2c2ccccc2)CC1,IC50,second compound 0.1 µM,< 0.949 nM
same,IC50,second compound 0.316 µM,< 0.949 nM
same,IC50,second compound 1 µM,< 0.949 nM
same,IC50,second compound 3.16 µM,< 0.949 nM
same,IC50,second compound 10 µM,< 0.949 nM
same,"viability, T/C","second compound 0.1 µM, first compound 0.000949 µM",2.54%
same,"viability, T/C","second compound 0.1 µM, first compound 0.003 µM",9.95%
same,"viability, T/C",[1],3.52%
same,"viability, T/C",[2],9.59%
same,"viability, T/C",[3],5.54%
same,"viability, T/C",[4],10.4%
same,"viability, T/C","second compound 0.316 µM, first compound 0.000949 µM",2.51%
same,"viability, T/C","second compound 0.316 µM, first compound 0.003 µM",5.66%
same,"viability, T/C",[5],5.62%
same,"viability, T/C",[6],2.98%
same,"viability, T/C",[7],10%
same,"viability, T/C",[8],7.9%
same,"viability, T/C","second compound 1 µM, first compound 0.000949 µM",10.2%
same,"viability, T/C","second compound 1 µM, first compound 0.003 µM",2.49%
same,"viability, T/C",[9],2.65%
same,"viability, T/C",[10],2.66%
same,"viability, T/C",[11],5.52%
same,"viability, T/C",[12],10.6%
same,"viability, T/C","second compound 3.16 µM, first compound 0.000949 µM",2.36%
same,"viability, T/C","second compound 3.16 µM, first compound 0.003 µM",6.19%
same,"viability, T/C",[13],2.7%
same,"viability, T/C",[14],3.2%
same,"viability, T/C",[15],2.6%
same,"viability, T/C",[16],5.18%
same,"viability, T/C","second compound 10 µM, first compound 0.000949 µM",4.44%
same,"viability, T/C","second compound 10 µM, first compound 0.003 µM",4.02%
same,"viability, T/C",[17],3.03%
same,"viability, T/C",[18],2.62%
same,"viability, T/C",[19],4.97%
same,"viability, T/C",[20],2.63%
O=C(c1cc(Cc2n[nH]c(=O)c3ccccc23)ccc1F)N1CCN(C(=O)C2CC2)CC1 + NC1CCC(NC2CC2c2ccccc2)CC1,IC50,second compound 0.1 µM,630 nM
same,IC50,second compound 0.316 µM,519 nM
same,IC50,second compound 1 µM,563 nM
same,IC50,second compound 3.16 µM,583 nM
same,IC50,second compound 10 µM,335 nM
same,"viability, T/C","second compound 0.1 µM, first compound 0.0316 µM",104%
same,"viability, T/C","second compound 0.1 µM, first compound 0.1 µM",113%
same,"viability, T/C","second compound 0.1 µM, first compound 0.316 µM",78.7%
same,"viability, T/C","second compound 0.1 µM, first compound 1 µM",31.2%
same,"viability, T/C","second compound 0.1 µM, first compound 3.16 µM",10.8%
same,"viability, T/C","second compound 0.1 µM, first compound 10 µM",12.9%
same,"viability, T/C","second compound 0.316 µM, first compound 0.0316 µM",111%
same,"viability, T/C","second compound 0.316 µM, first compound 0.1 µM",98.2%
same,"viability, T/C","second compound 0.316 µM, first compound 0.316 µM",72.1%
same,"viability, T/C","second compound 0.316 µM, first compound 1 µM",21.8%
same,"viability, T/C","second compound 0.316 µM, first compound 3.16 µM",8.68%
same,"viability, T/C","second compound 0.316 µM, first compound 10 µM",10.8%
same,"viability, T/C","second compound 1 µM, first compound 0.0316 µM",84.7%
same,"viability, T/C","second compound 1 µM, first compound 0.1 µM",101%
same,"viability, T/C","second compound 1 µM, first compound 0.316 µM",67.5%
same,"viability, T/C","second compound 1 µM, first compound 1 µM",30.7%
same,"viability, T/C","second compound 1 µM, first compound 3.16 µM",10.9%
same,"viability, T/C","second compound 1 µM, first compound 10 µM",7.07%
same,"viability, T/C","second compound 3.16 µM, first compound 0.0316 µM",100%
same,"viability, T/C","second compound 3.16 µM, first compound 0.1 µM",98.8%
same,"viability, T/C","second compound 3.16 µM, first compound 0.316 µM",75.5%
same,"viability, T/C","second compound 3.16 µM, first compound 1 µM",27.5%
same,"viability, T/C","second compound 3.16 µM, first compound 3.16 µM",7.3%
same,"viability, T/C","second compound 3.16 µM, first compound 10 µM",5.31%
same,"viability, T/C","second compound 10 µM, first compound 0.0316 µM",96.1%
same,"viability, T/C","second compound 10 µM, first compound 0.1 µM",74.6%
same,"viability, T/C","second compound 10 µM, first compound 0.316 µM",53.7%
same,"viability, T/C","second compound 10 µM, first compound 1 µM",26.1%
same,"viability, T/C","second compound 10 µM, first compound 3.16 µM",7.89%
same,"viability, T/C","second compound 10 µM, first compound 10 µM",3.97%
